Assay results taken from patent US20240294465A1, “NOVEL ANTI-FIBROTIC DRUGS” (HELMHOLTZ ZENTRUM MUNCHEN - DEUTSCHES FORSCHUNGSZENTRUM FUR …, priority 2021, published 2024).

Experiments:
[1] = test system: human lung organoids derived from human lung progenitor cells; test: Human lung organoid growth (colony formation efficiency); assay type: cell-based; settings: 10 μM, 14 days in culture
[2] = test system: cellular contractility of phLFs; test: 3D collagen gel contractility assay of primary human lung fibroblasts; assay type: cell-based; settings: n=3 patient phLFs
Description: In a 96-well imaging plate 50 μl 3D collagen gels were casted per well as described before (30), and 20.000 phLFs per well were seeded on top. Cells were treated with 1 ng/mL TGFβ1 and/or example 84. After 72 h cells were fixed with 4% paraformaldehyde. Collagen gels were imaged using an Axiolmager2 (Zeiss) and the gel diameter was determined using Zen Blue v2.5 (Zeiss).

[3] = test system: profibrotic gene signatures in phLFs+TGFβ1; test: Microarray transcriptomics and UMAP regulation pattern clustering in phLFs; assay type: cell-based, human; settings: phLFs+TGFβ1+example 84
Description: Total RNA was isolated PEQGold Total RNA Kit (PeqLab) according to the manufacturer's instructions including gDNA elimination. The Agilent 2100 Bioanalyzer was used to assess RNA quality and RNA with RIN>7 was used for microarray analysis. Total RNA (150 ng) was amplified using the WT PLUS Reagent Kit (Thermo Fisher Scientific Inc., Waltham, USA). Amplified cDNA was hybridized on Human ClariomS arrays (Thermo Fisher Scientific). Staining and scanning (GeneChip Scanner 3000 7G) was done according to manufacturer's instructions. Transcriptome Analysis Console (TAC; version 4.0.0.25; Thermo Fisher Scientific) was used for quality control and to obtain annotated normalized SST-RMA gene-level data. Statistical analyses were performed by utilizing the statistical programming environment R (R Development Core Team Ref1). Genewise testing for differential expression was done employing the paired limma t-test and Benjamini-Hochberg multiple testing correction (FDR<10%). To reduce background, gene sets were filtered using DABG p-values<0.05 in at least one sample per pair and in at least two of three pairs per analysis. […] Then, clusters of genes were extracted. Gene/protein interactions were visualized using the String Database (www.stringdb.org).

PAI-1/SERPINE1 = test: Human precision cut lung slices (PCLS) with fibrotic cocktail: immunoblot of secreted PAI-1; assay type: cell-based; settings: living human PCLS
Description: PCLS were prepared as described before (31, 32). Shortly, PCLS were prepared from tumor-free peri-tumor tissue. The lung tissue was inflated with 3% agarose solution and solidified at 4° C. Tissue blocks were cut in μm thick PCLS using a vibration microtome Hyrax V50 (Zeiss). PCLS were cultured in DMEM F-12 medium and treated with a profibrotic cocktail, as described before (31), or vehicle, as well as with small molecules or vehicles for 7 days. After culturing and treatments, supernatants were harvested. PCLS were […] washed in PBS and protein was extracted as previously described (33). Briefly, PCLS were pooled in an Eppendorf tube and lysed in 500 μl ice-cold RIPA buffer (50 mM Tris-CI pH 7.4, 150 mM NaCl, 1% NP40, 0.25% Na-deoxycholate) containing 1× Roche complete mini protease inhibitor cocktail (Roche, Cat. #11697498001). After an incubation of 2 hours rotating at 4° C., the lung slices were removed from the lysates and the protein content was measured.
Cells were scraped off the plastic dish directly into 200 μl ice-cold RIPA buffer containing 1× Roche complete mini protease inhibitor cocktail. […] CXCL/IL-8 concentrations were determined using Human IL-8/CXCL8 DuoSet ELISA (DY208-05) according to the manufacturer's protocol.

## CCCCOc1ccccc1NC(=O)/C=C/c1ccc(OC)c(OC)c1 [Example 84, (E)-N-(2-butoxyphenyl)-3-(3,4-dimethoxyphenyl)acrylamide]
[1]
  organoid growth: inhibited organoid growth
  viability of lung progenitor cells (calcein / ethidium homodimer III): many lung progenitor cells are still viable
[2]
  cellular contractility (collagen gel): significant inhibition of cellular contractility
[3]
  gene-set enrichment analysis (collagen formation, extracellular matrix organization, smooth-muscle contraction): negative enrichment for profibrotic gene signatures
PAI-1/SERPINE1
  secreted PAI-1/SERPINE1: diminution of secreted pro-fibrotic PAI-1/SERPINE1
